In one assay the test system is MDCK cells. As to the kind of experiment: MTT cell viability assay (normal cells). In kind it is cell-based, cannis. The conditions noted are these: Canis lupus familiaris, mean ± SD. How it is done:
(§1) CE81T/VGH (human esophageal squamous cell carcinoma), CE48T/VGH (human esophageal epidermoid carcinoma (VGH), SVEC (mouse vascular endothelial cell) and MDCK (cannis kidney epithelial cells) were purchased from the Food Industry Research and Development Institute. CE81T/VGH, CE48T/VGH, SVEC, and MDCK were cultured in Dulbecco's Modified Eagle Medium supplemented with 10% fetal bovine serum (Gibco BRL), 10 mM HEPES (Gibco), 1 mM pyruvate (Gibco), P/S (100 μg/ml penicillin, and 100 μg/ml streptomycin; Gibco), and non‐essential amino acids (Gibco, CE81T/VGH and CE48T/VGH only). Cells were grown in 10 cm^2 culture dishes in a humidified atmosphere with 5% CO2 at 37°C. The TP53 in the CE81T/VGH cells was mutated, which was detected using automated extraction of nucleic acids (AccuBioMed Co., Ltd.) and Femtopath Human Primer Sets (HongJing Biotech). JCo was purchased from the PHOENIX company and extracted using steam distillation. The clinical drug 5‐Fluorouracil (5‐FU; Sigma) was prepared in dimethyl sulfoxide (DMSO) in each in vitro experiment. Cells were treated with equivalent amounts of DMSO in the control and treatment groups, and the final concentration of DMSO in each experiment was 0.01%–0.5%.
(§2) The viability of CE81T/VGH, CE48T/VGH, MDCK, and SVEC cells was determined using a modified 3‐(4,5‐dimethylthiazol‐2‐yl)‐2,5‐diphenyltetrazolium bromide (MTT) assay. Cells were cultured in a 96‐well plate at a density of 5 × 10^3 cells/well for 24 hr and treated with different concentrations of JCo extract or 5‐FU for 24, 48, and 72 hr. MTT was dissolved in the base medium (400 μg/mL, Sigma), and 100 μl of solution was added into each well and incubated for 6–8 hr. The MTT formazan crystals were dissolved in 50 μL DMSO and the optical density (O.D.) was detected using a microplate reader (Molecular Devices, Spec384) at 550 nm. Cell viability was calculated as the O.D. percentage relative to the controls. The half‐maximal inhibitory concentration (IC50) value of JCo extract was measured from the cell viability assay.
Background: Formazan colour is commonly taken as a measure of viable cells.

In the next assay the test system is SVEC cells. As to the kind of experiment: MTT cell viability assay (normal cells). In kind it is cell-based. The conditions noted are these: Mus musculus, mean ± SD. As to the method:
as §1, §2

In another assay the test system is CE81T/VGH cells. Put plainly: MTT cell viability assay. In kind it is cell-based, human. The conditions noted are these: for IC50: Homo sapiens, CE81T/VGH, mean ± SD. As to the method:
as §1, §2

In the next assay the test system is CE48T/VGH cells. Put plainly: MTT cell viability assay. Type of assay: cell-based, human. The conditions noted are these: mean ± SD; for IC50: Homo sapiens. As to the method: as §1, §2

Structures are written as SMILES. Values after ≈ are worked out from the molar mass of the structure shown.

For the compound `O=c1[nH]cc(F)c(=O)[nH]1` [5‐FU, 5‐fluorouracil], the IC50 in the assay on MDCK cells (24 hr) is over 20 µg/mL; with MDCK cells (48 hr), under 0.63 µg/mL; in the assay on MDCK cells (72 hr), under 0.63 µg/mL; with SVEC cells (24 hr) it was 3.53 ± 0.29 µg/mL (≈ 27.1 µM); with SVEC cells (48 hr) it was under 0.63 µg/mL; in the assay with SVEC cells (72 hr), under 0.63 µg/mL. In addition, the IC50 in the assay on CE81T/VGH cells (24 hr) is over 20 µg/mL; with CE81T/VGH cells (48 hr), 15.3 ± 6.74 µg/mL (≈ 118 µM); in the assay with CE81T/VGH cells (72 hr), 1.62 ± 0.04 µg/mL (≈ 12.5 µM); with CE48T/VGH cells (24 hr), 16 ± 0.03 µg/mL (≈ 123 µM); with CE48T/VGH cells (72 hr) it was 3.73 ± 0.06 µg/mL (≈ 28.7 µM). Further, in the assay with CE81T/VGH cells (after 48 and 72 hr), the “selection for ESCC versus normal cells (from IC50 values)” value is recorded as “lower”. Further, in the assay on CE81T/VGH cells (after 24 hr), the “selection between ESCC and normal cells (from IC50 values)” value is reported as “no obvious selection”. Moreover, the “IC50 (cell viability)” value with CE48T/VGH cells (48 hr) is 5.64 ± 0.34 µg/mL (≈ 43.4 µM).

By IC50 is commonly meant the concentration at which inhibition is half-maximal. Higher therefore signals lower potency.

Source of the values: publication PMC7866587, “Cell cycle arrest and apoptosis induction by Juniperus communis extract in esophageal squamous cell carcinoma through activation of p53‐induced apoptosis pathway” (Food Science & Nutrition, 2020).
